“Also recorded” adds a separate entry of the source.
Tests used:
Assay type in all cases: physicochemical
[1] = Surface tension, force tensiometer with Wilhelmy plate; conditions: water
Protocol: Surface activities of OPAC, OPAS, and OPAH were determined using a force tensiometer with a platinum Wilhelmy plate (Sigma 702, Biolin Scientific). The test temperatures were 30° C. and 60° C. The plate was flushed with deionized water before heating it red hot to ensure it was properly cleaned. The surface tension of deionized water was measured three times to check if the cleanup procedure yielded repeatable results. The samples were covered to minimize evaporation, but with enough space to let the plate go through the covering during the measurement.
The surface tension data was used to estimate other properties using the following equations:
[formula] [formula] [formula] where cmc is critical micelle concentration, γ0 represents surface tension of water without surfactant, γcmc is surface tension at cmc, πcmc Represents the ability of the surfactant to reduce the surface tension, rmax is the maximum surface access, Avogadro number is represented by NA, dγ/dlnC is the slope, C represents the concentration of surfactant, temperature, and gas constant are represented by T and R, respectively, Amin is the minimum area per molecule, and the values of n is 1 for zwitterionic surfactants. Synthesis

[2] = Salt tolerance / solubility of surfactant solutions in DW, SW and FW; conditions: for Solubility and salt tolerance in DW, SW and FW: 10 wt % solutions in DW; for Solubility and salt tolerance in DW, SW and FW / Precipitation or phase separation of solutions in FW, SW and DW / Precipitation or phase separation in formation water (FIG. 5) / Precipitation or phase separation in seawater (FIG. 4): 90 days at 90° C.; for Solubility in simulated SW and FW: up to 90 days at 90° C.
Protocol: 10 wt % solutions of OPAC, OPAS, and OPAH were prepared in DW, SW, and FW and kept in the oven for 90 days at 90° C.

[3] = Thermogravimetric analysis (TGA), thermal stability; conditions: 20° C./min, nitrogen; for Thermal stability by TGA, stable up to: 30-500° C.
Protocol: TGA graph was obtained using SDT Q600 machine (TA instrument) with continuous heating at 20° C./min. The heating range 30-500° C. with a stable flow of nitrogen at 100 mL/min.

Amin (minimum area per molecule) ([1]; 30° C.) | cmc ([1]; 30° C.) | Γmax × 10^6 (maximum surface excess) ([1]; 30° C.) | γcmc (surface tension at cmc) ([1]; 30° C.) | πcmc (ability to reduce the surface tension) ([1]; 30° C.) | Amin (minimum area per molecule) ([1]; 60° C.) | cmc ([1]; 60° C.) | Γmax × 10^6 (maximum surface excess) ([1]; 60° C.) | γcmc (surface tension at cmc) ([1]; 60° C.) | πcmc (ability to reduce the surface tension) ([1]; 60° C.) | Thermal stability by TGA, stable up to [3] | Initial loss in weight (TGA; associated with water and solvent) [3] | Temperature of big weight loss / decomposition temperature (TGA) [3] | Substance | Solubility and salt tolerance in DW, SW and FW [2] | Precipitation or phase separation of solutions in FW, SW and DW [2] | Precipitation or phase separation in formation water (FIG. 5) [2] | Precipitation or phase separation in seawater (FIG. 4) [2] | Solubility in simulated SW and FW [2]
0.77 nm^2 | 3.66e-05 mol/L | 2.15 mol m^−2 | 37.04 mN m^−1 | 35.59 mN/m | 1.01 nm^2 | 3.41e-05 mol/L | 1.64 mol m^−2 | 33.74 mN m^−1 | 38.26 mN/m | ~300 °C | 25% | 295 °C | Oleyl Polyoxyethylene Amidopropyl Sulfobetaine [OPAS] | compatible and soluble with all kinds of water; also recorded: excellent solubility | no precipitation or phase separation was detected | no signs of precipitation or phase separation | no signs of precipitation or phase separation | soluble
0.62 nm^2 | 7.1e-05 mol/L | 2.66 mol m^−2 | 36.89 mN m^−1 | 34.96 mN/m | 0.71 nm^2 | 3.35e-05 mol/L | 2.33 mol m^−2 | 33.68 mN m^−1 | 38.07 mN/m | ~300 °C | 29% | 307 °C | Oleyl Polyoxyethylene Amidopropyl Hydroxy Sulfobetaine [OPAH] | compatible and soluble with all kinds of water; also recorded: excellent solubility | no precipitation or phase separation was detected | no signs of precipitation or phase separation | no signs of precipitation or phase separation | soluble
0.97 nm^2 | 0.000346 mol/L | 1.70 mol m^−2 | 34.67 mN m^−1 | 37.33 mN/m | 1.04 nm^2 | 9.7e-05 mol/L | 1.58 mol m^−2 | 32.24 mN m^−1 | 39.76 mN/m | ~300 °C | 30% | 312 °C | Oleyl Polyoxyethylene Amindopropyl Carboxybetaine [OPAC] | compatible and soluble with all kinds of water; also recorded: excellent solubility | no precipitation or phase separation was detected | no signs of precipitation or phase separation | no signs of precipitation or phase separation | soluble

From patent publication US11866641B2, “Method for fracking subterranean geological formation with surfactant-containing fluid” (KING FAHD UNIVERSITY OF PETROLEUM AND MINERALS, priority 2019, dated 2024)
